Test results reported in PMC11435625, “In Vitro Hepatic Clearance Evaluations of Per- and Polyfluoroalkyl Substances (PFAS) across Multiple Structural Categories” (Toxics, 2024).

Assays:
[1] = tested on: pooled primary human hepatocyte suspensions; assay: Hepatic clearance assay (substrate depletion, LC-MS); conditions: in µL/min/10^6 cells; for CLint for HTTK: CLint value carried into HTTK/IVIVE; for in vitro CLint exp assay: pooled primary human hepatocyte suspensions
Procedure: The rate of hepatic clearance was determined as previously described for a set of PFAS [11]. Analysis was conducted across two laboratories at the Division of Translational Toxicology (DTT) at the National Institute of Environmental Health Sciences (NIEHS) and the Center for Computational Toxicology and Exposure at the USEPA. The PFAS analyzed in each lab can be found in the Supplementary Materials.
The hepatic clearance assay was performed at both the DTT and EPA laboratories as described below. The pooled human hepatocyte suspensions used in this work were purchased commercially and meet the ethical and scientific standards described in the Human Ethics Rule (40 CFR 26). The suspensions were prepared from hepatocytes obtained from de-identified donors by a commercial vendor.
PFAS stock solutions prepared in DMSO were added to prewarmed William’s E medium to make a 2X working stock solution (2 µM). […] The working stock solutions were then transferred to a 96-well polypropylene plate and placed in an incubator at 37 °C with 5% carbon dioxide prior to adding cells. Cryopreserved pooled primary human hepatocyte suspensions (50-donor pool, mixed gender; BioIVT; Westbury, NY, USA) were thawed and transferred to vials containing hepatocyte thawing medium. After centrifuging for 5–10 min at 100× g, thawing medium was removed, being careful not to disturb the cell pellet. The primary human hepatocytes were then resuspended in pre-warmed complete Williams E medium to achieve a cell density of ~1.0 × 10^6 viable cells/mL as determined by Trypan Blue exclusion. Cells were then added to the 96-well incubation plates containing PFAS to achieve a final density of ~0.5 × 10^6 viable cells/mL and a 1 μM assay concentration (Ctest), then placed in incubator on a shaker at 300 rpm. Triplicate samples were removed from the incubator at time points ranging from 0 to 240 min and quenched with a total crash in 2–3 volumes of ice-cold acetonitrile. Samples were spun at 4000× g for 20 min, and supernatants were transferred to new tubes and stored at <−70 °C until analysis. Media-only (no cell) and/or heat-inactivated hepatocytes were included as negative controls for each chemical to evaluate and estimate chemical loss due to nonmetabolic processes (e.g., hydrolysis). Phenacetin was included in all runs as an assay reference compound; EPA also included propranolol as an additional reference compound.
Assay samples were diluted in mobile phase and analyzed using a Thermo Vanquish UPLC system with a Thermo Hypersil Gold aQ C18 column (100 × 2.1 mm, 1.9 […], Thermo Fisher Scientific Inc.) coupled to a Q Exactive Plus mass spectrometer. Gradient elution was used in the chromatographic separations using water with 20 mM ammonium acetate (mobile phase A) and methanol (mobile phase B), with the following gradient program: 0.5–7 min, 30%–90% B; 7–8 min, 90% B; 8–9 min, 90%–30% B; and 9–10 min, 30% B. The first minute of each injection was diverted to waste to avoid introduction of excessive salts from incubation medium. Analysis was detected in negative ion mode. Samples were quantified against an external, matrix-matched calibration curve. Additional methodologic information is available in Table S2.
To perform SPE, a positive-pressure manifold was employed along with Oasis WAX µElution plates and Oasis HLB 30 mg plates (Waters, Milford, MA, USA) for PFAS and positive-control extraction, respectively. […] The sorbent was then washed with 1% formic acid and water. Samples were eluted in 2% ammonia in methanol for analysis. Similarly, HLB plates were conditioned with methanol and water before sample was loaded onto the sorbent. The wells were then washed with 5% methanol in water and water before elution in methanol. For samples not undergoing SPE, the supernatant of the crashed assay sample was diluted in mobile phase prior to analysis. The first 1.5 min of the run was diverted to waste to prevent salt contamination.

[2] = IVIVE: steady-state concentration (Css), generic HTTK model; parameters: species or system human; conditions: for Css (mg/L) / Css (uM): Assuming 1 mg/kg/day dose rate, BW 70 kg; for CLhep: QL 1500000 uL/min; for Fub: fub=fup/(B:P), Fub set to 1 if needed; for CLint: scaled to whole liver: HPGL 110 mill cells/g, Vl 1596 g
Procedure: IVIVE was performed as previously described to calculate human steady-state concentrations (Css). Briefly, experimental plasma protein binding data presented elsewhere were transformed to fraction unbound in blood using blood-to-plasma partitioning values. Experimental Clint values generated here are used in conjunction with relevant liver scalars to scale up to estimate whole liver clearance. […] Once Css values were established, these were used with the PFAS-specific in vitro POD data to calculate the administered equivalent doses (AEDs) using reverse dosimetry. […] The fifth-percentile AC50 value was used to define the in vitro POD. All relevant inputs, scalars, and calculations are provided in Supplementary Information, as indicated in the results.

plasma protein = conditions: fraction unbound in plasma, input for IVIVE calculations; cited from earlier work

| SMILES | CLint for HTTK [1] | in vitro CLint exp assay [1] | Css (mg/L) [2] [mg/L] | Css (uM) [2] [µM] | CLhep [2] [L/h] | Fub [2] | CLint [2] [µL/min] | Mean fu (plasma protein) |
| --- | --- | --- | --- | --- | --- | --- | --- | --- |
| O=S(=O)(O)C(F)(F)C(F)(F)C(F)(F)C(F)(F)C(F)(F)C(F)(F)C(F)(F)F [Perfluoroheptanesulfonic acid (PFHpS)] | 0 | 0 | 402.24 | 893.98 | 0.000 | 0.001091 | 0 | 0.0006 |
| O=C(O)C(F)(F)C(F)(F)OC(F)(F)F | 0 | 0 | 3.16 | 13.74 | 0.000 | 0.1389 | 0 | 0.0764 |
| O=C(O)C(F)(F)C(F)(F)C(F)(F)C(F)(F)C(F)(F)C(F)(F)C(F)(F)C(F)(F)C(F)(F)C(F)(F)C(F)(F)C(F)(F)C(F)(F)F [Perfluorotetradecanoic acid (PFTeA)] | 0 | 0 | 8.91 | 12.47 | 0.000 | 0.04927 | 0 | 0.0271 |
| N.O=C(O)C(F)(F)C(F)(F)C(F)(F)C(F)(F)C(F)(F)C(F)(F)C(F)(F)F [Ammonium perfluorooctanoate (NH4PFOA)] | 2.06 | 2.06 | 81.36 | 196.53 | 0.028 | 0.001273 | 361654 | 0.0007 |
| O=C(O)C(F)(F)C(F)(F)C(F)F [4H-perfluorobutanoic acid (4H-PFBA)] | 0 | 0 | 1.41 | 7.18 | 0.000 | 0.3116 | 0 | 0.1714 |
| CCNS(=O)(=O)C(F)(F)C(F)(F)C(F)(F)C(F)(F)C(F)(F)C(F)(F)C(F)(F)C(F)(F)F | 8.96 | 8.96 | 0.58 | 1.10 | 4.700 | 0.05255 | 1573018 | 0.0289 |
| O=C(Cl)C(F)(F)C(F)(F)C(F)(F)C(F)(F)C(F)(F)C(F)(F)F [Perfluoroheptanoyl chloride (PFHpA-Cl)] | 0 | 0 | 180.82 | 473.43 | 0.000 | 0.002427 | 0 | 0.0017 |
| NS(=O)(=O)C(F)(F)C(F)(F)C(F)(F)C(F)(F)C(F)(F)C(F)(F)F [Perfluorohexanesulfonamide (PFHxSA)] | 0 | 0 | 603.36 | 1512.33 | 0.000 | 0.0007273 | 0 | 0.0004 |
| O=S(=O)(O)C(F)(F)C(F)(F)C(F)(F)C(F)(F)C(F)(F)C(F)(F)C(F)(F)C(F)(F)F [Perfluorooctane sulfonate (PFOS)] | 0 | 0 | 49.25 | 98.52 | 0.000 | 0.008909 | 0 | 0.0049 |
| O=S(=O)([O-])C(F)(F)C(F)(F)C(F)(F)C(F)(F)C(F)(F)C(F)(F)C(F)(F)C(F)(F)C(F)(F)C(F)(F)F.[Na+] [Sodium perfluorodecanesulfonate (NaPFDS)] | 0 | 0.00 | 4.57 | 7.62 | 0.000 | 0.096 | 0 | 0.0528 |
